One series concerns HIV-1 NL4.3 (X4). The conditions noted are these: read-out: EC50 (µM ± SEM), PBMCs, p24 Ag ELISA.
Series [1] has as its system HIV-1 DJ259 (clinical isolate; R5). The following applies: PBMCs; DJ259, group M subtype C; p24 Ag ELISA.
Series [2] has as its system HIV-1 ETH2220 (clinical isolate; R5). The following applies: PBMCs; ETH2220, group M subtype C; p24 Ag ELISA.
In series [3] the test system is HIV-1 BCF-06 (clinical isolate; X4). The conditions noted are these: PBMCs; BCF-06, group O; p27 Ag ELISA.
In the next series the target is T1, CD4 (Homo sapiens, UniProt P01730).
T1 construct: endogenous in cells; host or cells: SupT1 T cells (ATCC)
Description: Anti-CD4 mAb binding on SupT1 cells (flow cytometry). The following applies: SupT1 T cells; 9.6 µM or 1.9 µM. As for the experimental part:
To determine the interaction of LabyA1 with CD4, SupT1 cells (100 µl; 3×10^6 cells/ml) were incubated for 20 min at 4°C with 9.6 µM, 1.9 µM or 0 µM LabyA1. After extensive washing with PBS/FCS2% (PBS supplemented with 2% FCS), anti-CD4-PE conjugated mAbs RPA-T4 (eBioscience, Vienna, Austria), MT441 (Ancell, Enzo Life sciences) and OKT-4 (eBioscience) were added for 30 min at 4°C. For aspecific background staining, cells were incubated with SimulTest™ Control (IgGγ1-FITC/IgGγ2a-PE) (BD Biosciences). After washing, and fixation with 1% formaldehyde solution, samples were analyzed using the FACSCalibur and CellQuest software (BD Biosciences). The same protocol was applied for anti-CXCR4 evaluation using the fluorochrome conjugated mAbs 12G5-PE and 2B11-FITC (both BD Biosciences).

Another series deals with HIV-1 NL4.3. Description: Pre-incubation of MT-4 cells with compound, wash, then HIV-1 NL4.3 infection. It counts as cell-based. The following applies: MT-4 cells pre-incubated 2 h at 37°C, washed, infected with HIV-1 NL4.3; 5 days; control 100% CPE.
The next series concerns the target T2, R5 HIV-1 gp120 YU2 (Human immunodeficiency virus type 1 group M subtype B, UniProt P35961).
T2 construct: Recombinant gp120 proteins from X4 HIV-1 IIIB strain (ImmunoDiagnostics Inc., Woburn, MA) and from R5 HIV-1 strains ADA and YU2; purchased ImmunoDiagnostics Inc
Description: Surface plasmon resonance. The series is classed as binding. As for the experimental part:
(§1) Recombinant gp120 proteins from X4 HIV-1 IIIB strain (ImmunoDiagnostics Inc., Woburn, MA) and from R5 HIV-1 strains ADA and YU2 (ImmunoDiagnostics Inc.) were covalently immobilized on a CM5 sensor chip in 10 mM sodium acetate, pH 4.0, using standard amine coupling chemistry. […] A reference flow cell was used as a control for non-specific binding and refractive index changes. […] Samples (in duplicate) were injected for 2 minutes at a flow rate of 45 µl/min and the dissociation was followed for 4 minutes. Several buffer blanks were used for double referencing. The CM5 sensor chip surface was regenerated with a single injection of 50 mM NaOH. A DMSO concentration series was included to eliminate the contribution of DMSO to the measured response. […] The experimental data were fit using the 1∶1 binding model Biacore T200 Evaluation software 1.0 to determine the binding kinetics.

In the next series the target is T3, X4 HIV-1 gp120 IIIB (Human immunodeficiency virus type 1 group M subtype B, UniProt P04578).
T3 construct: Recombinant gp120 proteins from X4 HIV-1 IIIB strain; purchased ImmunoDiagnostics Inc., Woburn, MA
Description: Surface plasmon resonance. The series is classed as binding. As for the experimental part: as §1

Another series concerns PBMCs. Description: Activation markers CD25 and CD69 on PBMCs (flow cytometry). It counts as cell-based. The following applies: 3 days, LabyA1 9.6 µM, PHA 0.016 µM. As for the experimental part:
The effects of 9.6 µM LabyA1 and 0.016 µM PHA on the expression levels of the cellular activation markers CD25 and CD69 on PBMCs was measured after 3 days of incubation at 37°C. After washing with PBS/FCS2%, cells were incubated with anti-CD4 conjugated with PerCP (BD Biosciences) and co-stained with the PE-conjugated mAbs anti-CD25 or anti-CD69 (both BD Biosciences) for 30 min at 4°C. For aspecific background staining, cells were incubated with SimulTest™ Control (IgGγ1-FITC/IgGγ2a-PE). After washing, and fixation with 1% formaldehyde solution, samples were analyzed using the FACSCalibur and CellQuest software (BD Biosciences).

The nature of series [4]: Cytotoxicity assay (flow cytometry). It counts as cell-based. The conditions noted are these: 3 days, read-out: 50% cytotoxic concentration (CC50). As for the experimental part:
The vaginal epithelial cell lines HEC-1A and VK2 (500 µl; at a density of 1×10^6 cells/ml) were seeded in a 24-well plate and incubated for 3 days with various concentrations of LabyA1 (500 µl). Cell cytotoxicity was determined microscopically and by flow cytometry (FACSCalibur, BD Biosciences, Erembodegem, Belgium).

The test system of the next series is HIV-1 IIIB (X4). The following applies: read-out: EC50 (µM ± SEM), MT-4 cells, MTS/PES method.
Series [5] deals with HIV-1 NL4.3^AMD3100res. (X4). The conditions noted are these: read-out: EC50 (µM ± SEM); MT-4 cells; NL4.3 resistant to AMD3100; MTS/PES.
In another series the test system is HIV-1 NL4.3^T20res. (X4). The conditions noted are these: read-out: EC50 (µM ± SEM); MT-4 cells; NL4.3 resistant to enfuvirtide (T20); MTS/PES.
The subject of a further series is HIV-1 NL4.3^AZTres. (X4). The following applies: read-out: EC50 (µM ± SEM); MT-4 cells; NL4.3 resistant to azidothymidine (AZT); MTS/PES.
The test system of series [6] is laboratory-adapted HIV strains.
Series [7] relates to drug-resistant HIV strains. The following applies: read-out: Median EC50; median over 6 drug-resistant HIV-1 strains in MT-4.
The subject of another series is HSV-1 TK^-. The following applies: read-out: Median EC50; median over HSV-1 TK- strains; HEL cells.

The structures appear in SMILES notation. Like-named read-outs stand apart in the source and are kept apart here. Bounds are passed on as bounds.

As for `C/C=C1\NC(=O)[C@H](Cc2ccccc2)NC(=O)[C@@H]2CCCN2C(=O)[C@H](C(C)C)NC(=O)[C@H](Cc2c[nH]c3ccccc23)NC(=O)[C@]23CSC[C@H](NC1=O)C(=O)N[C@H](C(=O)O)CSSC[C@H](NC(=O)[C@@H]1CSC[C@]4(C[C@H](N)C(=O)N[C@@H](CC(N)=O)C(=O)N[C@@H](C)C(=O)N4)C(=O)N[C@@H](C(C)C)C(=O)N[C@@H](Cc4c[nH]c5ccccc45)C(=O)N[C@@H](CCC(=O)O)C(=O)N1)C(=O)N[C@@H](C2)C(=O)N[C@@H]([C@@H](C)O)C(=O)NCC(=O)N3` [LabyA1, labyrinthopeptin A1], the EC50 in the series on HIV-1 NL4.3 (X4) worked out at 0.79 ± 0.09 µM; in [1], 940 ± 430 nM; in [2] it was 780 ± 60 nM; in series [3] it was 830 ± 330 nM; in the series on HIV-1 IIIB (X4) it was 2 ± 0.6 µM; in [5] it was 2.4 ± 0.5 µM. Moreover, the EC50 with HIV-1 NL4.3^T20res. (X4) was 2.3 ± 0.3 µM; with HIV-1 NL4.3^AZTres. (X4) it was 1.1 ± 0.1 µM; in series [6] (read-out: EC50 range, range over cell-line adapted HIV strains (Table 1)), 790 to 3300 nM; in series [6] (read-out: Median EC50, median over laboratory-adapted HIV strains in MT-4, PBMCs, MDM), 1900 nM; in [7], 2100 nM; with HSV-1 TK^-, 1900 nM. At CD4, the “effect on binding of anti-CD4 mAbs RPA-T4, MT441 and OKT4” value is on record as “no effect”. Besides, the “% CPE after pre-incubation of cells and removal of compound” value in the series with HIV-1 NL4.3 came out at 96.8±3.2 % CPE. The values for the Kd at R5 HIV-1 gp120 YU2 and at X4 HIV-1 gp120 IIIB were 9800 ± 1600 nM and 7800 ± 2100 nM, respectively. Moreover, the “percentage of CD4+CD69+ cells” value in the series on PBMCs (untreated 1.4±0.8%) is given as “no significant effects”. The “percentage of CD4+CD25+ cells” value in the series on PBMCs (untreated 10.7±3.2%) is recorded as “no significant effects”. The figures for the CC50 in series [4] (HEC-1A (endometrium carcinoma)) and in series [4] (VK2 (vaginal epithelial)) were 34000 nM and above 48000 nM, respectively.

(Values after PMC3665789 (PLoS ONE, 2013).)
